Measurements: PubChem BioAssay (NCI)
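Step 1: Grow cells in 96-well plates. Step 2: Expose to compound for 48 hours at 5 concentrations. Step 3: Interpolate endpoints linearly; if unreached, use highest concentration. GI50 marks 50% less growth. The concentration for full growth arrest is given as TGI.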

Experiments:
Assay in all cases: growth of human tumour cells (NCI), 48 h
[1] = system: SK-MEL-5 melanoma
[2] = system: NCI/ADR-RES ovarian
[3] = system: RXF 393 renal
[4] = system: OVCAR-4 ovarian
[5] = system: MDA-MB-435
[6] = system: U251 CNS
[7] = system: HL-60(TB) leukemia
[8] = system: OVCAR-5 ovarian
[9] = system: HT29 colon
[10] = system: SF-295 CNS
[11] = system: BT-549 breast
[12] = system: TK-10 renal
[13] = system: OVCAR-8 ovarian
[14] = system: SF-539 CNS
[15] = system: T-47D breast
[16] = system: IGROV1 ovarian
[17] = system: CAKI-1 renal
[18] = system: HS 578T breast
[19] = system: KM12 colon
[20] = system: CCRF-CEM leukemia
[21] = system: SNB-75 CNS
[22] = system: A549 NSCLC
[23] = system: OVCAR-3 ovarian
[24] = system: UO-31 renal
[25] = system: MOLT-4 leukemia
[26] = system: RPMI-8226 leukemia
[27] = system: SK-OV-3 ovarian
[28] = system: HCC-2998 colon
[29] = system: NCI-H460 lung
[30] = system: SN12C renal
[31] = system: M14 melanoma
[32] = system: K-562 leukemia
[33] = system: A498 renal
[34] = system: LOX IMVI melanoma
[35] = system: HCT-116 colon
[36] = system: MDA-MB-231 breast
[37] = system: 786-0 renal
[38] = system: NCI-H23 lung
[39] = system: SK-MEL-28 melanoma
[40] = system: SR leukemia
[41] = system: SF-268 CNS
[42] = system: MALME-3M melanoma
[43] = system: NCI-H522 lung
[44] = system: COLO 205 colon
[45] = system: DU-145 prostate
[46] = system: HOP-92 NSCLC
[47] = system: UACC-62 melanoma
[48] = system: NCI-H226 lung
[49] = system: SW-620 colon
[50] = system: UACC-257 melanoma
[51] = system: HCT-15 colon
[52] = system: HOP-62 NSCLC
[53] = system: ACHN renal
[54] = system: SNB-19 CNS
[55] = system: MCF7 breast

C/C(=C\CCc1ccsc1)CC/C=C(\C)CCCN1CCC(CO)CC1
GI50 [1]: 1.55 µM | TGI [1]: 2.95 µM | GI50 [2]: 3.33 µM | TGI [2]: 13.3 µM | GI50 [3]: 1.31 µM | TGI [3]: 3.19 µM | GI50 [4]: 2.3 µM | TGI [4]: 9.5 µM | GI50 [5]: 1.87 µM | TGI [5]: 3.87 µM | GI50 [6]: 1.42 µM | TGI [6]: 3.11 µM | GI50 [7]: 1.94 µM | TGI [7]: 3.99 µM | GI50 [8]: 2.77 µM | TGI [8]: 11.6 µM | GI50 [9]: 1.94 µM | TGI [9]: 5.64 µM | GI50 [10]: 2 µM | TGI [10]: 4.13 µM | GI50 [11]: 1.7 µM | TGI [11]: 3.51 µM | GI50 [12]: 1.76 µM | TGI [12]: 3.29 µM | GI50 [13]: 3.02 µM | TGI [13]: 12.8 µM | GI50 [14]: 1.69 µM | TGI [14]: 3.36 µM | GI50 [15]: 2.22 µM | TGI [15]: 6.03 µM | GI50 [16]: 3.26 µM | TGI [16]: 10.8 µM | GI50 [17]: 2.61 µM | TGI [17]: 9.22 µM | GI50 [18]: 2 µM | TGI [18]: 6.19 µM | GI50 [19]: 1.88 µM | TGI [19]: 3.47 µM | GI50 [20]: 2.09 µM | TGI [20]: 4.8 µM | GI50 [21]: 1.69 µM | TGI [21]: 4.56 µM | GI50 [22]: 2.35 µM | TGI [22]: 7.56 µM | GI50 [23]: 2.11 µM | TGI [23]: 4.29 µM | GI50 [24]: 2.83 µM | TGI [24]: 16 µM | GI50 [25]: 2.3 µM | TGI [25]: 5.8 µM | GI50 [26]: 1.93 µM | TGI [26]: 4.15 µM | GI50 [27]: 5.15 µM | TGI [27]: 18.4 µM | GI50 [28]: 1.97 µM | TGI [28]: 3.77 µM | GI50 [29]: 1.92 µM | TGI [29]: 3.85 µM | GI50 [30]: 3.24 µM | TGI [30]: 14.2 µM | GI50 [31]: 1.92 µM | TGI [31]: 3.73 µM | GI50 [32]: 1.28 µM | TGI [32]: 3.41 µM | GI50 [33]: 1.24 µM | TGI [33]: 3.5 µM | GI50 [34]: 1.77 µM | TGI [34]: 3.27 µM | GI50 [35]: 1.67 µM | TGI [35]: 3.32 µM | GI50 [36]: 1.38 µM | TGI [36]: 2.87 µM | GI50 [37]: 1.77 µM | TGI [37]: 3.36 µM | GI50 [38]: 3.4 µM | TGI [38]: 12.9 µM | GI50 [39]: 1.69 µM | TGI [39]: 3.38 µM | GI50 [40]: 1.81 µM | TGI [40]: 4.4 µM | GI50 [41]: 5.06 µM | TGI [41]: 19.4 µM | GI50 [42]: 1.71 µM | TGI [42]: 3.37 µM | GI50 [43]: 1.9 µM | TGI [43]: 3.74 µM | GI50 [44]: 1.92 µM | TGI [44]: 3.95 µM | GI50 [45]: 4.69 µM | TGI [45]: 16.1 µM | GI50 [46]: 1.02 µM | TGI [46]: 3.69 µM | GI50 [47]: 1.81 µM | TGI [47]: 3.64 µM | GI50 [48]: 3.94 µM | TGI [48]: 21 µM | GI50 [49]: 2.02 µM | TGI [49]: 4.77 µM | GI50 [50]: 1.84 µM | TGI [50]: 4.06 µM | GI50 [51]: 1.86 µM | TGI [51]: 4.01 µM | GI50 [52]: 1.89 µM | TGI [52]: 3.63 µM | GI50 [53]: 3.02 µM | TGI [53]: 11.5 µM | GI50 [54]: 2.63 µM | TGI [54]: 9.28 µM | GI50 [55]: 2.17 µM | TGI [55]: 5.09 µM
